Source: patent US9586961B2, “Homopiperazine derivatives as protein tyrosine kinase inhibitors and pharmaceutical use thereof” (LEO PHARMA A/S, priority 2010, dated 2017)

Key:
Format in all cases: biochemical
JAK1 = molecular target: T1, JAK1 (Homo sapiens, UniProt P23458); test: JAK1 kinase assay (HTRF, inhibition of phosphorylation of a synthetic peptide); settings: catalytic domain aa 850-1154, GST-tag; 7 μM ATP (Km); read-out: JAK1 kinase inhibitory activity (EC50)
T1 construct: JAK1 (aa 850-1154) and TYK2 (aa 871-1187) are expressed with an N-terminally fused GST-tag; GST (N); purchased Carna Biosciences, Inc; host or cells: baculovirus expression system
How it was run: (§1)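 Baculovirus-expressed human catalytic domains (GST-JAK1, GST-TYK2, His-JAK2, His-JAK3) phosphorylated 1 μM TK substrate-biotin at ATP Km (JAK1 7 μM, JAK2 4 μM, JAK3 2 μM, TYK2 13 μM) in pH 7.0 Hepes for 20-30 min at RT, 0.75% DMSO. EDTA stop, then overnight streptavidin-XL665/cryptate-antibody detection and HTRF read.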

JAK2 = molecular target: T2, JAK2 (Homo sapiens, UniProt O60674); test: JAK2 kinase assay (HTRF, inhibition of phosphorylation of a synthetic peptide); settings: catalytic domain, His-tag; 4 μM ATP (Km); read-out: JAK2 kinase inhibitory activity (EC50)
T2 construct: All four purified enzymes contain only the catalytic domain; His (N); purchased Carna Biosciences, Inc; host or cells: baculovirus expression system
How it was run: as §1

JAK3 = molecular target: T3, JAK3 (Homo sapiens, UniProt P52333); test: JAK3 kinase assay (HTRF, inhibition of phosphorylation of a synthetic peptide); settings: catalytic domain, His-tag; 2 μM ATP (Km); read-out: JAK3 kinase inhibitory activity (EC50)
T3 construct: All four purified enzymes contain only the catalytic domain; His (N); purchased Carna Biosciences, Inc; host or cells: baculovirus expression system
How it was run: as §1

TYK2 = molecular target: T4, TYK2 (Homo sapiens, UniProt P29597); test: TYK2 kinase assay (HTRF, inhibition of phosphorylation of a synthetic peptide); settings: catalytic domain aa 871-1187, GST-tag; 13 μM ATP (Km); read-out: TYK2 kinase inhibitory activity (EC50)
T4 construct: JAK1 (aa 850-1154) and TYK2 (aa 871-1187) are expressed with an N-terminally fused GST-tag; GST (N); purchased Carna Biosciences, Inc; host or cells: baculovirus expression system
T4 sequence (P29597 871-1187): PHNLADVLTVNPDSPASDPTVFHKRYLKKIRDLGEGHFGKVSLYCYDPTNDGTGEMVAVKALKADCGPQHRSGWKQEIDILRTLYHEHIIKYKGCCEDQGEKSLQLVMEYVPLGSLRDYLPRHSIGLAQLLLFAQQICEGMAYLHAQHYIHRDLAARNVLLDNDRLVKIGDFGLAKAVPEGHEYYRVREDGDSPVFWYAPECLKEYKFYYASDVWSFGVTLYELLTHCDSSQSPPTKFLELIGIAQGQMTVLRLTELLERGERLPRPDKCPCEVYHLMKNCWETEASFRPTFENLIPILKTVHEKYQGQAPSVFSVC
How it was run: as §1

Measured: EC50

T1 sequence (P23458 850-1154): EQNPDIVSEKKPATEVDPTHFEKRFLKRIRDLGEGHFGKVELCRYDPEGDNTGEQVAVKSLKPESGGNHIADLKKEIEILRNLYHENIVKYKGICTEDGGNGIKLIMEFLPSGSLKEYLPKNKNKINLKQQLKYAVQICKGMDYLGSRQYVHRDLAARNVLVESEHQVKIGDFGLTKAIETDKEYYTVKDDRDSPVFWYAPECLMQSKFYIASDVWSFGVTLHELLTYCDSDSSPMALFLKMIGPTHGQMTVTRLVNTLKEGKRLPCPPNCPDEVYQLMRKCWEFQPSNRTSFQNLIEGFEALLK
T3 sequence (P52333 822-1111 limits assumed): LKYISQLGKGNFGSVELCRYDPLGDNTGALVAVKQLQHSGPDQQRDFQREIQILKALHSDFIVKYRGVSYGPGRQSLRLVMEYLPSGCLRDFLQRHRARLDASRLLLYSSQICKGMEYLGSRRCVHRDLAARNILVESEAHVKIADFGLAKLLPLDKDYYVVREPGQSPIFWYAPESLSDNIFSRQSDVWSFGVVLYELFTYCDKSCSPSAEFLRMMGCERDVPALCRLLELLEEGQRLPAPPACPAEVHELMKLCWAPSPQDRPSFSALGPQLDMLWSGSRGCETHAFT
T2 sequence (O60674 849-1124 limits assumed): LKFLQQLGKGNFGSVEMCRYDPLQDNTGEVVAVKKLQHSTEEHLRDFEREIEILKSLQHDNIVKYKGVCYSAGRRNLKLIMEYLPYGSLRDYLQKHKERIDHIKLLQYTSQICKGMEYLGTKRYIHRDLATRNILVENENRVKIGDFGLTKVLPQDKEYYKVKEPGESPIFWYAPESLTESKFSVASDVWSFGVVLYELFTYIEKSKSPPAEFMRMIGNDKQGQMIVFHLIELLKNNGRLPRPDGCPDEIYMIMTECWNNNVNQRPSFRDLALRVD

CC1CN(c2ncnc3[nH]ccc23)CC2(CC2)CN1C(=O)Cc1ccc(C#N)cc1 (stereo not drawn) [Example 286, 4-[2-[7-methyl-5-(7H-pyrrolo[2,3-d]pyrimidin-4-yl)-5,8-diazaspiro[2.6]nonan-8-yl]-2-oxo-ethyl]benzonitrile]
> 1000 nM: all assays above

c1nc(N2CCNCC3(CC3)C2)c2cc[nH]c2n1 [Example 290]
> 1000 nM: all assays above

c1nc(N2CCNC3(CC2)CC3)c2cc[nH]c2n1 [Example 291]
> 1000 nM: all assays above

CC1CN(c2ncnc3[nH]ccc23)CC2(CC2)CN1 (stereo not drawn) [Example 293]
> 1000 nM: all assays above

CCCCC(=O)Nc1nc(N2CCNCC3(CC3)C2)c2cc[nH]c2n1 [Example 294]
> 1000 nM: all assays above

CCCCC(=O)Nc1nc(N2CCCNC3(CC3)C2)c2cc[nH]c2n1 [Example 295]
> 1000 nM: all assays above
